Measurements reported in DBAASP.
Values after ≈ are worked out from the molar mass of the structure shown.

How the values were obtained:
Experiment in all cases: ≥ marks a high value that may be exact or a test limit, other limits are often not marked, values filed in µg/mL are converted to µM
[1] = tested on: Staphylococcus aureus NCTC 10788
[2] = tested on: Escherichia coli NCTC 10418
Staphylococcus aureus = tested on: Staphylococcus aureus
Bacillus cereus = tested on: Bacillus cereus
Escherichia coli = tested on: Escherichia coli
[3] = tested on: Escherichia coli ATCC 25922
[4] = tested on: Enterococcus faecalis ATCC 29212
[5] = tested on: Staphylococcus epidermidis ATCC 12228
[6] = tested on: Klebsiella pneumoniae ATCC 700603
[7] = tested on: Staphylococcus aureus ATCC 25923
[8] = tested on: Bacillus subtilis ATCC 23857
[9] = tested on: Pseudomonas aeruginosa ATCC 27853
[10] = tested on: Acinetobacter baumannii ATCC 19606
Salmonella typhimurium = tested on: Salmonella typhimurium

Q: `CC[C@H](C)[C@H](NC(=O)CNC(=O)[C@H](CO)NC(=O)[C@H](CC(C)C)NC(=O)[C@H](Cc1cnc[nH]1)NC(=O)[C@@H]1CCCN1C(=O)[C@H](CC(C)C)NC(=O)[C@H](CC(C)C)NC(=O)[C@H](CCC(=O)O)NC(=O)[C@H](CCCCN)NC(=O)[C@@H](NC(=O)[C@@H](N)Cc1ccccc1)[C@@H](C)CC)C(=O)N[C@H](C(=O)N[C@@H](CC(=O)O)C(=O)N[C@@H](CO)C(=O)N[C@H](C(=O)N[C@@H](C)C(=O)N[C@@H](CC(N)=O)C(=O)N[C@@H](C)C(=O)N[C@H](C(=O)N[C@@H](CCCCN)C(N)=O)[C@@H](C)CC)C(C)C)[C@@H](C)CC` [FIKELLPHLSGIIDSVANAIK] was tested. Which MIC [1] did it give?
A: The MIC was no less than 55 µM.

Q: And the MIC [2]?
A: Its MIC is no less than 110 µM.

Q: For `CC(C)C[C@H](NC(=O)[C@@H](N)Cc1ccccc1)C(=O)NCC(=O)N[C@H](C(=O)N[C@H](C(=O)N[C@@H](Cc1ccccc1)C(=O)N[C@@H](CCCCN)C(=O)N[C@@H](CCCCN)C(=O)N[C@@H](C)C(=O)N[C@@H](CO)C(=O)N[C@@H](CCCCN)C(=O)N[C@H](C(=O)N[C@@H](Cc1ccccc1)C(=O)N[C@@H](CCCCN)C(=O)N[C@@H](C)C(=O)N[C@H](C(=O)N[C@@H](Cc1ccccc1)C(=O)NCC(=O)N[C@@H](CCCCN)C(=O)N[C@H](C(=O)O)C(C)C)C(C)C)C(C)C)C(C)C)C(C)C` [FLGVVFKKASKVFKAVFGKV], which MIC (Staphylococcus aureus) is on record?
A: The MIC was 116 µM (≈ 256 µg/mL).

Q: What about the MIC (Bacillus cereus) of the same compound?
A: Its MIC is 14.5 µM (≈ 32 µg/mL).

Q: And the MIC (Escherichia coli)?
A: The MIC was 14.5 µM (≈ 32 µg/mL).

Q: `CC(C)C[C@H](NC(=O)[C@@H](N)Cc1ccccc1)C(=O)NCC(=O)N[C@H](C(=O)N[C@H](C(=O)N[C@@H](Cc1ccccc1)C(=O)N[C@@H](CCCCN)C(=O)N[C@@H](CCCCN)C(=O)N[C@@H](C)C(=O)N[C@@H](CO)C(=O)N[C@@H](CCCCN)C(=O)N[C@H](C(=O)N[C@@H](Cc1ccccc1)C(=O)N1CCC[C@H]1C(=O)N[C@@H](C)C(=O)N[C@H](C(=O)N[C@@H](Cc1ccccc1)C(=O)N[C@@H](CCCCN)C(=O)N[C@@H](CCCCN)C(=O)N[C@H](C(=O)O)C(C)C)C(C)C)C(C)C)C(C)C)C(C)C` [FLGVVFKKASKVFPAVFKKV] was tested. Which MIC (Staphylococcus aureus) did it give?
A: The MIC was greater than 114 µM.

Q: What about the MIC (Bacillus cereus) of the same compound?
A: Its MIC is no less than 114 µM.

Q: And the MIC (Escherichia coli)?
A: The MIC was 114 µM (≈ 256 µg/mL).

Q: How did the MIC (Staphylococcus aureus) turn out when `CC(C)C[C@H](NC(=O)[C@H](CCCCN)NC(=O)[C@H](Cc1ccccc1)NC(=O)[C@@H](NC(=O)[C@@H](NC(=O)CNC(=O)[C@H](CC(C)C)NC(=O)[C@@H](N)Cc1ccccc1)C(C)C)C(C)C)C(=O)N[C@@H](C)C(=O)N[C@@H](CO)C(=O)N[C@@H](CCCCN)C(=O)N[C@H](C(=O)N[C@@H](Cc1ccccc1)C(=O)NCC(=O)N[C@@H](C)C(=O)N[C@H](C(=O)N[C@@H](Cc1ccccc1)C(=O)N[C@@H](CCCCN)C(=O)N[C@@H](CCCCN)C(=O)N[C@H](C(=O)O)C(C)C)C(C)C)C(C)C` [FLGVVFKLASKVFGAVFKKV] was run?
A: The MIC was 3.66 µM (≈ 8 µg/mL).

Q: And the MIC (Bacillus cereus)?
A: The MIC was 3.66 µM (≈ 8 µg/mL).

Q: And the MIC (Escherichia coli)?
A: The MIC was 117 µM (≈ 256 µg/mL).

Q: `CC(C)C[C@H](NC(=O)CN)C(=O)N[C@@H](Cc1c[nH]c2ccccc12)C(=O)N[C@@H](CCCCN)C(=O)N[C@@H](CCCN=C(N)N)C(=O)N[C@@H](Cc1c[nH]c2ccccc12)C(=O)N[C@@H](CCCCN)C(=O)N[C@@H](CCCCN)C(=O)N[C@@H](Cc1ccccc1)C(=O)N[C@@H](Cc1c[nH]c2ccccc12)C(N)=O` [GLWKRWKKFW] was tested. Which MIC [3] did it give?
A: Its MIC is 8 µM (≈ 11.5 µg/mL).

Q: What about the MIC [4] of the same compound?
A: Its MIC is 32 µM (≈ 45.9 µg/mL).

Q: What about the MIC [5] of the same compound?
A: Its MIC is 16 µM (≈ 22.9 µg/mL).

Q: And the MIC [6]?
A: Its MIC is 8 µM (≈ 11.5 µg/mL).

Q: What about the MIC [7] of the same compound?
A: Its MIC is 8 µM (≈ 11.5 µg/mL).

Q: And the MIC [8]?
A: Its MIC is 8 µM (≈ 11.5 µg/mL).

Q: What about the MIC [9] of the same compound?
A: Its MIC is 4 µM (≈ 5.74 µg/mL).

Q: What about the MIC [10] of the same compound?
A: Its MIC is 16 µM (≈ 22.9 µg/mL).

Q: How did the MIC (Salmonella typhimurium) turn out when `CC[C@H](C)[C@H](NC(=O)[C@@H](NC(=O)[C@@H]1CCCN1C(=O)[C@@H](NC(=O)[C@@H]1CCCN1C(=O)[C@H](CCCCN)NC(=O)[C@H](CCCCN)NC(=O)[C@H](CO)NC(=O)CN)C(C)C)[C@@H](C)CC)C(=O)N[C@@H](Cc1ccc(O)cc1)C(=O)N[C@@H](C)C(=O)N[C@@H](CC(N)=O)C(=O)N[C@@H](CCCN=C(N)N)C(=O)N[C@@H](CCCN=C(N)N)C(=O)N[C@H](C(=O)NCC(=O)N[C@@H](CCCCN)C(=O)N[C@@H](C)C(=O)N[C@@H](CCC(N)=O)C(=O)N[C@@H](CCCN=C(N)N)C(=O)N[C@@H](CCSC)C(=O)O)[C@@H](C)O` [GSKKPVPIIYANRRTGKAQRM] was run?
A: Its MIC is 20.8 µM (≈ 49.3 µg/mL).
